Tests used:
Assay in all cases: Test B preemergence/postemergence greenhouse plant response rating 0 to 10
Details in all cases: 0 to 10 scale
[1] = tested on: chickweed; format: in vivo, Stellaria media
From the text: (§1) Seeds of barley (Hordeum vulgare), barnyardgrass (Echinochloa crus-galli), bedstraw (Galium aparine), blackgrass (Alopecurus myosuroides), […] (Bromus secalinus), chickweed (Stellaria media), cocklebur (Xanthium pensylvanicum), corn (Zea mays), cotton (Gossypium hirsutum), crabgrass (Digitaria spp.), giant foxtail (Setaria faberii), lambsquarters (Chenopodium album), morningglory (Ipomoea hederacea), rape (Brassica napus), rice (Oryza sativa), sorghum (Sorghum bicolor), soybean (Glycine max), sugar beet (Beta vulgaris), velvetleaf (Abutilon theophrasti), wheat (Triticum aestivum), wild buckwheat (Polygonum convolvulus), and wild oat (Avena fatua) and purple nutsedge. (Cyperus rotundus) tubers were planted and treated preemergence with test chemicals dissolved in a non-phytotoxic solvent. At the same time, these crop and weed species were also treated with postemergence applications of test chemicals. Plants ranged in height from two to eighteen cm (one to four leaf stage) for postemergence treatments. Treated plants and controls were maintained in a greenhouse for twelve to sixteen days, after which all species were compared to controls and visually evaluated. […] A dash (-) response means no test result.

[2] = tested on: barley; format: in vivo, Hordeum vulgare
From the text: as §1

[3] = tested on: bedstraw; format: in vivo, Galium aparine
From the text: as §1

[4] = tested on: morningglory; format: in vivo, Ipomoea hederacea
From the text: as §1

[5] = tested on: soybean; format: in vivo, Glycine max
From the text: as §1

[6] = tested on: rape; format: in vivo, Brassica napus
From the text: as §1

[7] = tested on: velvetleaf; format: in vivo, Abutilon theophrasti
From the text: as §1

[8] = tested on: cocklebur; format: in vivo, Xanthium pensylvanicum
From the text: as §1

[9] = tested on: sugar beet; format: in vivo, Beta vulgaris
From the text: as §1

[10] = tested on: giant foxtail; format: in vivo, Setaria faberii
From the text: as §1

[11] = tested on: sorghum; format: in vivo, Sorghum bicolor
From the text: as §1

[12] = tested on: corn; format: in vivo, Zea mays
From the text: as §1

[13] = tested on: purple nutsedge; format: in vivo, Cyperus rotundus
From the text: as §1

[14] = tested on: rice; format: in vivo, Oryza sativa
From the text: as §1

[15] = tested on: blackgrass; format: in vivo, Alopecurus myosuroides
From the text: as §1

[16] = tested on: cheatgrass; format: in vivo, Bromus secalinus
From the text: as §1

[17] = tested on: crabgrass; format: in vivo, Digitaria spp.
From the text: as §1

[18] = tested on: wild buckwheat; format: in vivo, Polygonum convolvulus
From the text: as §1

[19] = tested on: lambsquarters; format: in vivo, Chenopodium album
From the text: as §1

[20] = tested on: wild oat; format: in vivo, Avena fatua
From the text: as §1

[21] = tested on: cotton; format: in vivo, Gossypium hirsutum
From the text: as §1

[22] = tested on: barnyardgrass; format: in vivo, Echinochloa crus-galli
From the text: as §1

[23] = tested on: wheat; format: in vivo, Triticum aestivum
From the text: as §1

CCC(=O)Oc1cc(-c2nn3c(c2Cl)CCCC3)c(F)cc1Cl [Compound 47] was tested, and the “Plant response rating, Chickweed” value ([1]; POSTEMERGENCE, Rate 50 g/ha) was 9, the “Plant response rating, Chickweed” value ([1]; POSTEMERGENCE, Rate 200 g/ha) was 9 and the “Plant response rating, Chickweed” value ([1]; PREEMERGENCE, Rate 50 g/ha) was 0. The “Plant response rating, Chickweed” value ([1]; Rate 200 g/ha, PREEMERGENCE) was 2, the “Plant response rating, Barley” value ([2]; POSTEMERGENCE, Rate 50 g/ha) was 5 and the “Plant response rating, Barley” value ([2]; POSTEMERGENCE, Rate 200 g/ha) was 4. For the same compound, the “Plant response rating, Barley” value ([2]; PREEMERGENCE, Rate 50 g/ha) was 0, the “Plant response rating, Barley” value ([2]; Rate 200 g/ha, PREEMERGENCE) was 0 and the “Plant response rating, Bedstraw” value ([3]; POSTEMERGENCE, Rate 50 g/ha) was 9. For the same compound, the “Plant response rating, Bedstraw” value ([3]; POSTEMERGENCE, Rate 200 g/ha) was 10, the “Plant response rating, Bedstraw” value ([3]; PREEMERGENCE, Rate 50 g/ha) was 9 and the “Plant response rating, Bedstraw” value ([3]; Rate 200 g/ha, PREEMERGENCE) was 9. For the same compound, the “Plant response rating, Morningglory” value ([4]; POSTEMERGENCE, Rate 50 g/ha) was 9, the “Plant response rating, Morningglory” value ([4]; PREEMERGENCE, Rate 50 g/ha) was 1 and the “Plant response rating, Morningglory” value ([4]; Rate 200 g/ha, POSTEMERGENCE) was 10. The “Plant response rating, Morningglory” value ([4]; Rate 200 g/ha, PREEMERGENCE) was 3, the “Plant response rating, Soybean” value ([5]; POSTEMERGENCE, Rate 50 g/ha) was 7 and the “Plant response rating, Soybean” value ([5]; PREEMERGENCE, Rate 50 g/ha) was 0. The “Plant response rating, Soybean” value ([5]; Rate 200 g/ha, POSTEMERGENCE) was 7, the “Plant response rating, Soybean” value ([5]; Rate 200 g/ha, PREEMERGENCE) was 0 and the “Plant response rating, Rape” value ([6]; POSTEMERGENCE, Rate 50 g/ha) was 3. The “Plant response rating, Rape” value ([6]; PREEMERGENCE, Rate 50 g/ha) was 1, the “Plant response rating, Rape” value ([6]; Rate 200 g/ha, POSTEMERGENCE) was 6 and the “Plant response rating, Rape” value ([6]; Rate 200 g/ha, PREEMERGENCE) was 2. For the same compound, the “Plant response rating, Velvetleaf” value ([7]; POSTEMERGENCE, Rate 50 g/ha) was 8, the “Plant response rating, Velvetleaf” value ([7]; PREEMERGENCE, Rate 50 g/ha) was 2 and the “Plant response rating, Velvetleaf” value ([7]; Rate 200 g/ha, POSTEMERGENCE) was 9. For the same compound, the “Plant response rating, Velvetleaf” value ([7]; Rate 200 g/ha, PREEMERGENCE) was 4, the “Plant response rating, Cocklebur” value ([8]; POSTEMERGENCE, Rate 50 g/ha) was 6 and the “Plant response rating, Cocklebur” value ([8]; POSTEMERGENCE, Rate 200 g/ha) was 9. For the same compound, the “Plant response rating, Cocklebur” value ([8]; PREEMERGENCE, Rate 50 g/ha) was 2, the “Plant response rating, Cocklebur” value ([8]; Rate 200 g/ha, PREEMERGENCE) was 3 and the “Plant response rating, Sugar beet” value ([9]; POSTEMERGENCE, Rate 50 g/ha) was 10. For the same compound, the “Plant response rating, Sugar beet” value ([9]; PREEMERGENCE, Rate 50 g/ha) was 1, the “Plant response rating, Sugar beet” value ([9]; Rate 200 g/ha, POSTEMERGENCE) was 10 and the “Plant response rating, Sugar beet” value ([9]; Rate 200 g/ha, PREEMERGENCE) was 8. For the same compound, the “Plant response rating, Giant foxtail” value ([10]; POSTEMERGENCE, Rate 50 g/ha) was 4, the “Plant response rating, Giant foxtail” value ([10]; PREEMERGENCE, Rate 50 g/ha) was 0 and the “Plant response rating, Giant foxtail” value ([10]; Rate 200 g/ha, POSTEMERGENCE) was 6. For the same compound, the “Plant response rating, Giant foxtail” value ([10]; Rate 200 g/ha, PREEMERGENCE) was 5, the “Plant response rating, Sorghum” value ([11]; POSTEMERGENCE, Rate 50 g/ha) was 3 and the “Plant response rating, Sorghum” value ([11]; PREEMERGENCE, Rate 50 g/ha) was 0. For the same compound, the “Plant response rating, Sorghum” value ([11]; Rate 200 g/ha, POSTEMERGENCE) was 4, the “Plant response rating, Sorghum” value ([11]; Rate 200 g/ha, PREEMERGENCE) was 0 and the “Plant response rating, Corn” value ([12]; POSTEMERGENCE, Rate 50 g/ha) was 4. The “Plant response rating, Corn” value ([12]; POSTEMERGENCE, Rate 200 g/ha) was 5, the “Plant response rating, Corn” value ([12]; PREEMERGENCE, Rate 50 g/ha) was 0 and the “Plant response rating, Corn” value ([12]; Rate 200 g/ha, PREEMERGENCE) was 0. The “Plant response rating, Nutsedge” value ([13]; POSTEMERGENCE, Rate 50 g/ha) was 2, the “Plant response rating, Nutsedge” value ([13]; PREEMERGENCE, Rate 50 g/ha) was 0 and the “Plant response rating, Nutsedge” value ([13]; Rate 200 g/ha, POSTEMERGENCE) was 8. The “Plant response rating, Nutsedge” value ([13]; Rate 200 g/ha, PREEMERGENCE) was 0, the “Plant response rating, Rice” value ([14]; POSTEMERGENCE, Rate 50 g/ha) was 4 and the “Plant response rating, Rice” value ([14]; PREEMERGENCE, Rate 50 g/ha) was 0. For the same compound, the “Plant response rating, Rice” value ([14]; Rate 200 g/ha, POSTEMERGENCE) was 5, the “Plant response rating, Rice” value ([14]; Rate 200 g/ha, PREEMERGENCE) was 0 and the “Plant response rating, Blackgrass” value ([15]; POSTEMERGENCE, Rate 50 g/ha) was 4. The “Plant response rating, Blackgrass” value ([15]; POSTEMERGENCE, Rate 200 g/ha) was 8, the “Plant response rating, Blackgrass” value ([15]; PREEMERGENCE, Rate 50 g/ha) was 2 and the “Plant response rating, Blackgrass” value ([15]; Rate 200 g/ha, PREEMERGENCE) was 3. The “Plant response rating, Cheatgrass” value ([16]; POSTEMERGENCE, Rate 50 g/ha) was 4, the “Plant response rating, Cheatgrass” value ([16]; POSTEMERGENCE, Rate 200 g/ha) was 4 and the “Plant response rating, Cheatgrass” value ([16]; PREEMERGENCE, Rate 50 g/ha) was 0. For the same compound, the “Plant response rating, Cheatgrass” value ([16]; Rate 200 g/ha, PREEMERGENCE) was 0, the “Plant response rating, Crabgrass” value ([17]; POSTEMERGENCE, Rate 50 g/ha) was 3 and the “Plant response rating, Crabgrass” value ([17]; POSTEMERGENCE, Rate 200 g/ha) was 6. The “Plant response rating, Crabgrass” value ([17]; PREEMERGENCE, Rate 50 g/ha) was 0, the “Plant response rating, Crabgrass” value ([17]; Rate 200 g/ha, PREEMERGENCE) was 0 and the “Plant response rating, Wild buckwheat” value ([18]; POSTEMERGENCE, Rate 50 g/ha) was 10. For the same compound, the “Plant response rating, Wild buckwheat” value ([18]; PREEMERGENCE, Rate 50 g/ha) was 0, the “Plant response rating, Wild buckwheat” value ([18]; Rate 200 g/ha, POSTEMERGENCE) was 10 and the “Plant response rating, Wild buckwheat” value ([18]; Rate 200 g/ha, PREEMERGENCE) was 9. The “Plant response rating, Lambsquarter” value ([19]; POSTEMERGENCE, Rate 50 g/ha) was 7, the “Plant response rating, Lambsquarter” value ([19]; PREEMERGENCE, Rate 50 g/ha) was 9 and the “Plant response rating, Lambsquarter” value ([19]; Rate 200 g/ha, POSTEMERGENCE) was 10. For the same compound, the “Plant response rating, Lambsquarter” value ([19]; Rate 200 g/ha, PREEMERGENCE) was 9, the “Plant response rating, Wild oat” value ([20]; POSTEMERGENCE, Rate 50 g/ha) was 3 and the “Plant response rating, Wild oat” value ([20]; PREEMERGENCE, Rate 50 g/ha) was 0. The “Plant response rating, Wild oat” value ([20]; Rate 200 g/ha, POSTEMERGENCE) was 3, the “Plant response rating, Cotton” value ([21]; POSTEMERGENCE, Rate 50 g/ha) was 10 and the “Plant response rating, Cotton” value ([21]; POSTEMERGENCE, Rate 200 g/ha) was 10. The “Plant response rating, Cotton” value ([21]; PREEMERGENCE, Rate 50 g/ha) was 0, the “Plant response rating, Cotton” value ([21]; Rate 200 g/ha, PREEMERGENCE) was 2 and the “Plant response rating, Barnyardgrass” value ([22]; POSTEMERGENCE, Rate 50 g/ha) was 6. For the same compound, the “Plant response rating, Barnyardgrass” value ([22]; POSTEMERGENCE, Rate 200 g/ha) was 9, the “Plant response rating, Barnyardgrass” value ([22]; PREEMERGENCE, Rate 50 g/ha) was 0 and the “Plant response rating, Barnyardgrass” value ([22]; Rate 200 g/ha, PREEMERGENCE) was 0. The “Plant response rating, Wheat” value ([23]; POSTEMERGENCE, Rate 50 g/ha) was 3, the “Plant response rating, Wheat” value ([23]; PREEMERGENCE, Rate 50 g/ha) was 0 and the “Plant response rating, Wheat” value ([23]; Rate 200 g/ha, POSTEMERGENCE) was 6. The “Plant response rating, Wheat” value ([23]; Rate 200 g/ha, PREEMERGENCE) was 2.
